Experimental data reported in PMC10648875 (Antimicrobial Agents and Chemotherapy, 2023).
Converted amounts (≈) assume the structure as drawn. Read-outs that look alike come from different tables or passages of the source.

How the values were obtained:
[1] = test system: ESBL-producing Enterobacterales; experiment: organism not typed; type: cell-based; settings: ESBL (N = 521); xeruborbactam and vaborbactam fixed 8 mg/L, all other BLIs 4 mg/L
[2] = test system: carbapenem-resistant Enterobacterales (subset of 507 isolates); experiment: organism not typed; type: cell-based; settings: xeruborbactam and vaborbactam fixed 8 mg/L, all other BLIs 4 mg/L
[3] = test system: ESBL-producing and carbapenem-resistant Enterobacterales (All, N = 1028); experiment: organism not typed; type: cell-based; settings: All (N = 1028); xeruborbactam and vaborbactam fixed 8 mg/L, all other BLIs 4 mg/L
[4] = test system: Escherichia coli NCTC 13353 (ECM7514), CTX-M-15; experiment: MIC, reference strain; type: cell-based; settings: Escherichia coli, NCTC13353
Experimental: (§1) Other BL/BLI combinations were tested at their recommended BLI concentrations. MIC values for the partner antibiotics and BLIs alone were also determined (Table 2; Table S1). All investigational and marketed BLIs enhanced the potency of antibiotics according to their spectrum of inhibition. MIC values against CLSI-approved QC strains were within acceptable ranges for drugs and combinations tested (Table 3).
(§2) Isolates were tested for antimicrobial susceptibility using the broth microdilution methodology per CLSI M07 (2018) guidelines ([40]). JMI Laboratories produced frozen-form 96-well panels with cation-adjusted Mueller-Hinton broth as the testing medium. Current CLSI quality assurance practices were followed when performing the susceptibility tests. MIC values were validated by concurrently testing the following CLSI-recommended ([27]) QC reference strains: E. coli NCTC 13353 (CTX-M-15), Klebsiella pneumoniae ATCC BAA-2814 (KPC-3), Klebsiella pneumoniae ATCC BAA-1705 (KPC-2), and K. pneumoniae ATCC 700603 (SHV-18). The inoculum density during susceptibility testing was monitored by bacterial colony counts. Where applicable, QC ranges for tested reference strains were those approved or published by the CLSI ([27]). Meropenem was purchased from Carbosynth; ceftolozane was synthesized at Acme Bioscience, Palo Alto, CA, USA; all other antibiotics were from Sigma Aldrich. Xeruborbactam was synthesized at Qpex Biopharma, San Diego, CA, USA. Avibactam was purchased from eNovation, Chemicals LLC, Bridgewater, NJ, USA. Vaborbactam was synthesized at The Medicines Company, San Diego, CA. Relebactam, taniborbactam, and relebactam were synthesized at Acme Bioscience.

[5] = test system: E. coli CDC 0069 (EC1106), NDM-1; experiment: MIC, reference strain; type: cell-based; settings: Escherichia coli, BLI at the fixed concentration in brackets, read-out: MIC
Experimental: as §1
as §2, with “([27]).” for “([27]). Meropenem was purchased from Carbosynth; ceftolozane was synthesized at Acme Bioscience, Palo Alto, CA, USA; all other antibiotics were from Sigma Aldrich. Xeruborbactam was synthesized at Qpex Biopharma, San Diego, CA, USA. Avibactam was purchased from eNovation, Chemicals LLC, Bridgewater, NJ, USA. Vaborbactam was synthesized at The Medicines Company, San Diego, CA. Relebactam, taniborbactam, and relebactam were synthesized at Acme Bioscience.”

[6] = test system: K. pneumoniae ATCC BAA-1705 (KPM1123), KPC-2; experiment: MIC, reference strain; type: cell-based; settings: Klebsiella pneumoniae, ATCCBAA1705; KPC-2; BLI at the fixed concentration in brackets; read-out: MIC
Experimental: as §1
as §2, with “([27]).” for “([27]). Meropenem was purchased from Carbosynth; ceftolozane was synthesized at Acme Bioscience, Palo Alto, CA, USA; all other antibiotics were from Sigma Aldrich. Xeruborbactam was synthesized at Qpex Biopharma, San Diego, CA, USA. Avibactam was purchased from eNovation, Chemicals LLC, Bridgewater, NJ, USA. Vaborbactam was synthesized at The Medicines Company, San Diego, CA. Relebactam, taniborbactam, and relebactam were synthesized at Acme Bioscience.”

[7] = test system: K. pneumoniae ATCC BAA-2814 (KP1074), KPC-3; experiment: MIC, reference strain; type: cell-based; settings: Klebsiella pneumoniae, ATCCBAA2814; KPC-3; BLI at the fixed concentration in brackets; read-out: MIC
Experimental: as §1
as §2, with “([27]).” for “([27]). Meropenem was purchased from Carbosynth; ceftolozane was synthesized at Acme Bioscience, Palo Alto, CA, USA; all other antibiotics were from Sigma Aldrich. Xeruborbactam was synthesized at Qpex Biopharma, San Diego, CA, USA. Avibactam was purchased from eNovation, Chemicals LLC, Bridgewater, NJ, USA. Vaborbactam was synthesized at The Medicines Company, San Diego, CA. Relebactam, taniborbactam, and relebactam were synthesized at Acme Bioscience.”

[8] = test system: K. pneumoniae CDC 0135 (KP1291), VIM-1; experiment: MIC, reference strain; type: cell-based; settings: Klebsiella pneumoniae, BLI at the fixed concentration in brackets, read-out: MIC
Experimental: as §1
as §2, with “([27]).” for “([27]). Meropenem was purchased from Carbosynth; ceftolozane was synthesized at Acme Bioscience, Palo Alto, CA, USA; all other antibiotics were from Sigma Aldrich. Xeruborbactam was synthesized at Qpex Biopharma, San Diego, CA, USA. Avibactam was purchased from eNovation, Chemicals LLC, Bridgewater, NJ, USA. Vaborbactam was synthesized at The Medicines Company, San Diego, CA. Relebactam, taniborbactam, and relebactam were synthesized at Acme Bioscience.”

[9] = test system: Klebsiella pneumoniae ATCC 700603 (KPM2881), SHV-18; experiment: MIC, reference strain; type: cell-based; settings: Klebsiella pneumoniae, ATCC700603; SHV-18; BLI at the fixed concentration in brackets; read-out: MIC
Experimental: as §1
as §2, with “([27]).” for “([27]). Meropenem was purchased from Carbosynth; ceftolozane was synthesized at Acme Bioscience, Palo Alto, CA, USA; all other antibiotics were from Sigma Aldrich. Xeruborbactam was synthesized at Qpex Biopharma, San Diego, CA, USA. Avibactam was purchased from eNovation, Chemicals LLC, Bridgewater, NJ, USA. Vaborbactam was synthesized at The Medicines Company, San Diego, CA. Relebactam, taniborbactam, and relebactam were synthesized at Acme Bioscience.”

[10] = test system: P. aeruginosa BAA-3197 (PA5257), KPC-2; experiment: MIC, reference strain; type: cell-based; settings: Pseudomonas aeruginosa, BAA3197; KPC-2; BLI at the fixed concentration in brackets; read-out: MIC
[11] = molecular target: CTX-M-14 (Escherichia coli, UniProt Q9L5C7); experiment: Ki app of β-lactamase inhibition, purified enzyme; type: biochemical; settings: 10-minute preincubation; nitrocefin substrate
Experimental: (§3) The majority of purified β-lactamase enzymes used in the study were either expressed and purified internally ([35]) or obtained from Emerald Biostructures (Bainbridge Island, WA, USA). L1 enzyme was purified as described in reference ([36]).
(§4) Enzymes were mixed with BLIs at concentrations varying from 160 to 0.0027 µM in 50-mM Na-phosphate pH7.0, 0.1-mg/mL bovide serum albumin (BSA) (buffer A; 20-µM ZnCl2 was also added for all metalloenzymes) and incubated for 10 minutes at 37°C. Nitrocefin (50 µM) (10 µM for SHV-12) or 100 µM of imipenem (prewarmed at 37°C for 10 minutes) was added, and substrate cleavage profiles were recorded at 37°C at 490 nm every 10 seconds for 10 minutes or at 294 nm every 30 seconds for 1 hour for nitrocefin and imipenem, respectively. […] Ki app values (Ki for metalloenzymes) were calculated by the method of Waley ([37]).

[12] = molecular target: CTX-M-15 (Escherichia coli, UniProt Q9EXV5); experiment: Ki app of β-lactamase inhibition, purified enzyme; type: biochemical; settings: 10-minute preincubation; nitrocefin substrate
Experimental: as §3, §4

[13] = molecular target: P99 (Enterobacter cloacae, UniProt P05364); experiment: Ki app of β-lactamase inhibition, purified enzyme; type: biochemical; settings: 10-minute preincubation; nitrocefin substrate; read-out: Ki app
Experimental: as §3, §4

[14] = molecular target: SHV-12 (Klebsiella pneumoniae, UniProt P0AD64, E235K/G234S/L31Q); experiment: Ki app of β-lactamase inhibition, purified enzyme; type: biochemical
Experimental: as §3, §4

[15] = molecular target: IMP-1 (Serratia marcescens, UniProt P52699); experiment: Ki of metallo-β-lactamase inhibition, purified enzyme; type: biochemical
Experimental: as §3, §4

[16] = molecular target: VIM-1 (Pseudomonas aeruginosa, UniProt A0A0F7KYQ8); experiment: as above; type: biochemical; settings: 10-minute preincubation; nitrocefin substrate
Experimental: as §3, §4

[17] = molecular target: NDM-1 (Klebsiella pneumoniae, UniProt C7C422); experiment: biochemical
Experimental: as §3, §4

[18] = CTX-M-15, BLI at the fixed concentration in brackets, read-out: MIC

Sequence of SHV-12 (P0AD64 22-286 L31Q/G234S/E235K): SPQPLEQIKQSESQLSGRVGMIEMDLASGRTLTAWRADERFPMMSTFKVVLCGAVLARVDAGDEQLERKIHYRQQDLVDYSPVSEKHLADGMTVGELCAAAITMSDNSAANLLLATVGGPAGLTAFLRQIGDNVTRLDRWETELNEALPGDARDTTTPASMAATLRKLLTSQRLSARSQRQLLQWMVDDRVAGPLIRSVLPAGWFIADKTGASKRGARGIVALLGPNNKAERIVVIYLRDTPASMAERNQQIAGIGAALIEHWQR
Sequence of IMP-1 (P52699 19-246 limits assumed): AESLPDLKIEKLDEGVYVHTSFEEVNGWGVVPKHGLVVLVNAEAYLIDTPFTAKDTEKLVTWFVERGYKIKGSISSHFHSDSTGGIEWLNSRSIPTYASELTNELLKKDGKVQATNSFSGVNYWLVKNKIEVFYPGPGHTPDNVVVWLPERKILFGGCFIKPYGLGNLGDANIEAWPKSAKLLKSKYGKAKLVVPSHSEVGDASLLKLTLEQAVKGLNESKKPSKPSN
Sequence of NDM-1 (C7C422 29-270 limits assumed): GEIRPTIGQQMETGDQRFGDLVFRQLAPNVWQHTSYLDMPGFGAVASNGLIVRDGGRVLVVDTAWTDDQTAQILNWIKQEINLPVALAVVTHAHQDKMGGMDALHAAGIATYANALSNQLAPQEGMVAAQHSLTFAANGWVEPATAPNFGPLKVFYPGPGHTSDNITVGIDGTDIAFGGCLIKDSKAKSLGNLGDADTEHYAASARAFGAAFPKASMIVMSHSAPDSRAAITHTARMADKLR
Sequence of CTX-M-15 (Q9EXV5 entry or part of it): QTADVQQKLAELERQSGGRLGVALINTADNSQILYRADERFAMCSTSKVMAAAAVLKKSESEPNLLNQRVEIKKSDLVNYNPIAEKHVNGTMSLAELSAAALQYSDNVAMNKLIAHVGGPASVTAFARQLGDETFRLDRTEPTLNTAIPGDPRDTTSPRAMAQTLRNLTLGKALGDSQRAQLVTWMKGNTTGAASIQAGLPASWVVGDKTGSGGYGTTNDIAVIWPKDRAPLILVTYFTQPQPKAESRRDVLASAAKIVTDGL
Sequence of P99 (P05364 21-381): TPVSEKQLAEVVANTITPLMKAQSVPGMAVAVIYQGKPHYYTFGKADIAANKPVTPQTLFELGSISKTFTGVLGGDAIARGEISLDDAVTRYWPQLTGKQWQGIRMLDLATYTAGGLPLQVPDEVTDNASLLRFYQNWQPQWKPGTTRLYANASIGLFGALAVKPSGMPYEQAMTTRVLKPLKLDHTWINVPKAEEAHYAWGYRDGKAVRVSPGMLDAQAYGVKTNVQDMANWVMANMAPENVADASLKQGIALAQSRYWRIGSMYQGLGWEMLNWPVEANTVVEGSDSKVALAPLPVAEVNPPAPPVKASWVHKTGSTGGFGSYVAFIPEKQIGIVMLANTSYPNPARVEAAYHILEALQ
Sequence of CTX-M-14 (Q9L5C7 entry or part of it): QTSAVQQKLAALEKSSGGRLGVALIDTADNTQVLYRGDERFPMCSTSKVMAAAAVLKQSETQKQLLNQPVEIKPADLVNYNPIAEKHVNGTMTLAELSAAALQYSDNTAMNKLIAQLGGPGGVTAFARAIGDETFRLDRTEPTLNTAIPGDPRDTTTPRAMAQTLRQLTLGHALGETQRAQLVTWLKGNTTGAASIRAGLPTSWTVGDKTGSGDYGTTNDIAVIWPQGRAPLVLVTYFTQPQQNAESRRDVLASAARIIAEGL

| Compound | MIC [5] [µg/mL] | MIC [6] [µg/mL] | MIC [7] [µg/mL] | MIC [8] [µg/mL] | MIC [9] [µg/mL] | MIC [10] [µg/mL] | Ki [15] [nM] | MIC [4, 18] [µg/mL] | also measured |
| --- | --- | --- | --- | --- | --- | --- | --- | --- | --- |
| C[C@@H](O)[C@H]1C(=O)N2C(C(=O)O)=C(S[C@@H]3CN[C@H](C(=O)Nc4cccc(C(=O)O)c4)C3)[C@H](C)[C@H]12 [ETP] |  |  |  |  |  |  |  |  | MIC50 [1]: 0.06 µg/mL; MIC90 [1]: 0.5 µg/mL; MIC50 ([2]; CRE (N = 507)): >32 µg/mL; MIC90 ([2]; CRE (N = 507)): >32 µg/mL; MIC50 ([2]; KPC (N = 193)): >32 µg/mL; MIC90 ([2]; KPC (N = 193)): >32 µg/mL; MIC50 ([2]; MBL (N = 168)): >32 µg/mL; MIC90 ([2]; MBL (N = 168)): >32 µg/mL; MIC50 ([2]; Non-CP CRE (N = 50)): >32 µg/mL; MIC90 ([2]; Non-CP CRE (N = 50)): >32 µg/mL; MIC50 ([2]; OXA-48-like (N = 96)): >32 µg/mL; MIC90 ([2]; OXA-48-like (N = 96)): >32 µg/mL; MIC50 [3]: 4 µg/mL; MIC90 [3]: >32 µg/mL |
| C[C@@H](O)[C@H]1C(=O)N2C(C(=O)O)=C(SCCN=CN)C[C@H]12 [IMP, imipenem] | 16 | 8 | 64 | 8 | 0.06 | > 64 |  |  | MIC [4]: 0.125 µg/mL |
| O=C(NC1CCNCC1)[C@@H]1CC[C@@H]2CN1C(=O)N2OS(=O)(=O)O [Relebactam, relebactam] | > 64 | > 64 | > 64 | > 64 | > 64 | > 64 | > 160000 | > 64 | Ki [11]: 10 ± 3 nM; Ki [12]: 24 ± 1 nM; Ki [13]: 14 ± 2 nM; Ki [14]: 36 ± 6 nM; Ki [16]: > 160000 nM; Ki [17]: > 160000 nM |
| Cn1c(N)c(NC(=O)NCCN)c[n+]1CC1=C(C(=O)O)N2C(=O)[C@@H](NC(=O)/C(=N\OC(C)(C)C(=O)[O-])c3nsc(N)n3)[C@H]2SC1 [TOL, ceftolozane] | > 64 | 64 | > 64 | > 64 | 8 | 32 (≈ 48 µM) |  | > 64 |  |
| O=C(O)C[C@@H]1CC[C@H](NC(=O)Cc2cccs2)B(O)O1 [Vaborbactam, vaborbactam] | > 64 | > 64 | > 64 | > 64 | > 64 | > 64 | > 160000 | > 64 | Ki ([14]; 10-minute preincubation, nitrocefin substrate, read-out: Ki app): 21 ± 4 nM |
